Measured values reported in patent publication EP4596566A1, “COMPOUND PRODUCTION METHOD” (The University of Tokyo, priority 2022, dated 2024).
*1 amine or outer side, *2 acyl side, *3 side chain or, on linkers, in order; H or OH if unused. Where a SMILES comes first, the peptide text is derived from it. Bridges are numbered along the chain shown (N, C = ends). [ ]: non-standard residue; d: D form. The star is where a group is joined. X2 = C=C(N[*:2])c1nc(-c2nc(-c3nc(C(=O)NCCC(=O)NCCOCCOCCCCCCCl)cs3)ccc2C(=O)[*:1])cs1; X1 = C=C(N[*:2])c1nc(-c2nc(-c3nc(C(=O)OC)cs3)ccc2C(=O)[*:1])cs1; Nle = CCCC[C@H](N)C(=O)O; Dhb = C/C=C(\N)C(=O)O; Cam = NC(=O)C*

What was measured:
IRAK4 = molecular target: T1, IRAK4 (Homo sapiens, UniProt Q9NWZ3); experiment: Surface plasmon resonance (SPR) binding affinity to IRAK4
T1 sequence (Q9NWZ3 1-460): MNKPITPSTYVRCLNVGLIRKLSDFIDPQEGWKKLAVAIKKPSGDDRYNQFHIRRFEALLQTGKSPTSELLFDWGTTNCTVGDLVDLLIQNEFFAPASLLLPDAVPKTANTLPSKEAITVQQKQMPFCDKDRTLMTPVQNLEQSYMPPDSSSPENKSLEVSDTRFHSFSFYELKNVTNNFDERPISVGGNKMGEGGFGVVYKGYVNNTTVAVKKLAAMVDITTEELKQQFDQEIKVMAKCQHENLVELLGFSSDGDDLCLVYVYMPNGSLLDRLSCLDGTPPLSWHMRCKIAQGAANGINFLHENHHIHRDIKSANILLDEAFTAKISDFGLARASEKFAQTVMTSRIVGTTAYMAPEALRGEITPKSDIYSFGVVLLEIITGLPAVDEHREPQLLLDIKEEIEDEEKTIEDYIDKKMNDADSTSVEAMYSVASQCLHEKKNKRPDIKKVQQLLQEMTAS
Experimental: Next, the binding affinity of each of the synthesized thiopeptides (14 types excluding IR1-ct and IR15-ct in Figure 8) to the target IRAK4 and TLR10 was examined using surface plasmon resonance (SPR). […] Next, using an ADP-Glo-based kinase inhibition assay, the IC50 values of 4 types of thiopeptides for IRAK4 excluding IR1-ct and IR15-ct were evaluated.

TNIK = TNIK (Homo sapiens, UniProt Q9UKE5); experiment: Surface plasmon resonance (SPR) binding affinity to TNIK; details: ATP 1 mM, 15-fold higher than KM
Sequence of TNIK (Q9UKE5 whole entry): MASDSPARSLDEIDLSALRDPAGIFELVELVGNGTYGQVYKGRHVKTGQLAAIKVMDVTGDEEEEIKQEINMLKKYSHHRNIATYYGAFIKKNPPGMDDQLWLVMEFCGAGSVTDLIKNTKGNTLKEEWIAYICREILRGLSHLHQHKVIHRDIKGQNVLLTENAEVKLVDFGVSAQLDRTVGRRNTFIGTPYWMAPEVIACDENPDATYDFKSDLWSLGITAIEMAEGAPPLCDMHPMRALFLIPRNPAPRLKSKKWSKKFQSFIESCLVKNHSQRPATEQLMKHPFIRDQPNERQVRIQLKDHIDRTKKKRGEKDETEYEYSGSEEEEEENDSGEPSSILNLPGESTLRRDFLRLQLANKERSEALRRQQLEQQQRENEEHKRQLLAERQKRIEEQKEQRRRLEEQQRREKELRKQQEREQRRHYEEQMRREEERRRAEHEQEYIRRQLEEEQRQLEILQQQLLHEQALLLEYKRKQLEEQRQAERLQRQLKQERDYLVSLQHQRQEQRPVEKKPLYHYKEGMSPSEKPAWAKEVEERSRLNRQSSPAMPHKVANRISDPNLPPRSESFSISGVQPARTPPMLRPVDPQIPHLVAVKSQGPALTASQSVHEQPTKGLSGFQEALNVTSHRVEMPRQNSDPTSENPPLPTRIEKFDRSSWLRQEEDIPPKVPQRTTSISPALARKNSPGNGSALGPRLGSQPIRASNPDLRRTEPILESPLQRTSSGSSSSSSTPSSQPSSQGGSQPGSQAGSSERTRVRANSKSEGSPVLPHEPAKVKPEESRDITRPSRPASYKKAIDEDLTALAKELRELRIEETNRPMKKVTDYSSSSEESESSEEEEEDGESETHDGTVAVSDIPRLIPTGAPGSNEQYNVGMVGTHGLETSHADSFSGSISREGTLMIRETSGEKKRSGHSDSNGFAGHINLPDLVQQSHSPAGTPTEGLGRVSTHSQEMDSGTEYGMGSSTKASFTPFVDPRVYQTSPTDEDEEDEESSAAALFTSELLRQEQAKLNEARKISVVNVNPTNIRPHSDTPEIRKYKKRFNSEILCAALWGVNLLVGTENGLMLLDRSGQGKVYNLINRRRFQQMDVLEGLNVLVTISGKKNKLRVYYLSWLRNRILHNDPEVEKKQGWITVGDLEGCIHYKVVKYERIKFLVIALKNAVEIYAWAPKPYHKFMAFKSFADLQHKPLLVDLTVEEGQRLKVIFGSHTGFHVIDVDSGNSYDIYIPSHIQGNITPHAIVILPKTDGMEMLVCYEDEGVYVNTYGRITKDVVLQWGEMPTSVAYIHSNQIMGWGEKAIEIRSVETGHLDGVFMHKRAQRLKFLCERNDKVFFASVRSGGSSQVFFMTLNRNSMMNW
Description: Surface plasmon resonance (SPR) was used to evaluate the binding affinity of the thiopeptide synthesized in Example 2 to TNIK.

[1] = Metabolic stability in human serum at 37°C, LC/MS; assay type: in vitro ADME
Experimental: The compounds were incubated with a human serum at 37°C, and the amount of the residual test substance at various points in time was quantified by LC/MS with respect to an internal standard substance. […] Next, it was examined whether or not the half-lives of the compounds were affected by the reactivity of the Dha residue. The Dha residue may be conjugated with various serum thiols.
In addition, the metabolic stability of all of the 14 types of candidate thiopeptides was examined. The compound was incubated with the human serum at 37°C, and the amount of the residual thiopeptide at various points in time was quantified by LC/MS with respect to the internal standard substance. The half-life of the thiopeptide for TLR10 was generally as long as 38.2 hours, and the thiopeptide was stable.

[2] = test system: NFkB reporter gene activity; experiment: NFkB reporter gene assay in THP1-XBlue stable cell line; assay type: cell-based; details: read-out: inhibition (IC50) of NFkB reporter gene activity

SMILES	half-life (τ1/2) in human serum [1] [h]	IC50 [2] [µM]	other results
C=C1NC(=O)[C@H](CCCCN)NC(=O)[C@H](Cc2ccc(O)cc2)NC(=O)[C@H]([C@@H](C)CC)NC(=O)[C@H](CCCNC(=N)N)NC(=O)[C@H](CCCNC(=N)N)NC(=O)[C@H](CCCCN)NC(=O)[C@H](Cc2ccccc2)NC(=O)[C@H](CC(C)C)NC(=O)[C@H](CCSC)NC(=O)[C@H](CO)NC(=O)[C@H](Cc2c[nH]c3ccccc23)NC(=O)c2ccc(-c3nc(C(=O)OC)cs3)nc2-c2csc1n2 [IR1] (WSMLFKRRIYK; linker N-C via X1)			Kd (IRAK4): 0.0013 µM
C=C1NC(=O)CNC(=O)[C@H](CC(N)=O)NC(=O)[C@H](CC(C)C)NC(=O)CNC(=O)[C@H](CCCCN)NC(=O)[C@H](C)NC(=O)[C@H]([C@@H](C)CC)NC(=O)[C@H](CO)NC(=O)[C@H](Cc2c[nH]c3ccccc23)NC(=O)[C@H](C)NC(=O)[C@H](Cc2c[nH]c3ccccc23)NC(=O)c2ccc(-c3nc(C(=O)OC)cs3)nc2-c2csc1n2 [TP8] (WAWSIAKGLNG; linker N-C via X1)	14		binding to TNIK in the presence of the saturated concentration of ATP (TNIK): bonded to TNIK
C=C1NC(=O)/C(=C/C)NC(=O)[C@H](Cc2c[nH]c3ccccc23)NC(=O)[C@H](Cc2c[nH]cn2)NC(=O)[C@H](Cc2c[nH]c3ccccc23)NC(=O)[C@H]([C@@H](C)O)NC(=O)[C@H]([C@@H](C)CC)NC(=O)[C@H](Cc2ccccc2)NC(=O)[C@H](CCC(N)=O)NC(=O)[C@H](CCCNC(=N)N)NC(=O)[C@H](CCCCN)NC(=O)[C@H](CCCC)NC(=O)[C@H](CO)NC(=O)[C@H](Cc2c[nH]c3ccccc23)NC(=O)c2ccc(-c3nc(C(=O)NCCC(=O)NCCOCCOCCCCCCCl)cs3)nc2-c2csc1n2 [IR15-ct] (WS[Nle]KRQFITWHW[Dhb]; linker N-C via X2)		7	
C=C1NC(=O)[C@H](CCCCN)NC(=O)[C@H](Cc2ccc(O)cc2)NC(=O)[C@H]([C@@H](C)CC)NC(=O)[C@H](CCCNC(=N)N)NC(=O)[C@H](CCCNC(=N)N)NC(=O)[C@H](CCCCN)NC(=O)[C@H](Cc2ccccc2)NC(=O)[C@H](CC(C)C)NC(=O)[C@H](CCSC)NC(=O)[C@H](CO)NC(=O)[C@H](Cc2c[nH]c3ccccc23)NC(=O)c2ccc(-c3nc(C(=O)NCCC(=O)NCCOCCOCCCCCCCl)cs3)nc2-c2csc1n2 [IR1-ct] (WSMLFKRRIYK; linker N-C via X2)		7.8	
C=C1NC(=O)[C@H](CO)NC(=O)[C@H](CSCC(N)=O)NC(=O)CNC(=O)[C@H](Cc2ccc(O)cc2)NC(=O)[C@H](C)NC(=O)[C@H](CO)NC(=O)[C@H](CC(=O)O)NC(=O)CNC(=O)[C@H](CC(C)C)NC(=O)[C@H](Cc2c[nH]c3ccccc23)NC(=O)[C@H](Cc2c[nH]c3ccccc23)NC(=O)c2ccc(-c3nc(C(=O)OC)cs3)nc2-c2csc1n2 [TP4] (WWLGDSAYGC(Cam)S; linker N-C via X1)	88		
